Results: patent publication US9593145B2, “Secondary structure stabilized NMDA receptor modulators and uses thereof” (Northwestern University, priority 2010, dated 2017)
Entries after “also recorded” stand apart in the source; their conditions may differ. Like-named read-outs stand apart in the source and are kept apart here. Residues, ends and D or L forms follow the SMILES beside them.

Legend:
[1] = tested on: Schaffer collateral CA1 synapses; settings: cited from earlier work
[2] = target: T1, NMDA receptor (Rattus norvegicus, UniProt P35439); settings: cited from earlier work
T1 construct: in hippocampal CAI pyramidal neurons; from tissue; host or cells: in vitro hippocampal slices, CA1 pyramidal neurons

[3] = tested on: Schaffer collateral CA1 synapses; settings: cited from earlier work; remark: listed apart in the source
[4] = tested on: Schaffer collateral CA1 synapses; test: long term depression (LTD) at Schaffer collateral CA1 synapses, in vitro hippocampal slices; format: cell-based; settings: 1 μM; low frequency stimulus
Source text: (§1) The effects of the three compounds were examined on 1) NMDA receptor gated single neuron conductance (INMDA) in hippocampal CAI pyramidal neurons and 2) the magnitude of long term potentiation (LTP) and long term depression (LTD) at Schaffer collateral CA1 synapses, in in vitro hippocampal slices.

[5] = target: T1, NMDA receptor; test: NMDA receptor gated single neuron conductance (INMDA) in hippocampal CA1 pyramidal neurons; format: cell-based; settings: for relative potency / magnitude as enhancer of INMDA among the tested compounds: low concentrations (50-100 nM)
Source text: as §1

[6] = tested on: Schaffer collateral CA1 synapses; test: long term potentiation (LTP) at Schaffer collateral CA1 synapses, in vitro hippocampal slices; format: cell-based; settings: for effect on magnitude of LTP: high frequency stimulus
Source text: as §1

[7] = tested on: Glutamate, NMDA, Agonism; test: binding assay, Glutamate, NMDA, Agonism; design: species or system rat; settings: 10 μM
Source text: (§2) Table B depicts the results of binding assays against various targets with AK51: […]

[8] = tested on: Glutamate, NMDA, Phencyclidine; test: binding assay, Glutamate, NMDA, Phencyclidine; design: species or system rat; settings: 10 μM
Source text: as §2

[9] = tested on: Glutamate, Kainate; test: binding assay, Glutamate, Kainate; design: species or system rat; settings: 10 μM
Source text: as §2

[10] = tested on: Glutamate, Non-Selective; test: binding assay, Glutamate, Non-Selective; design: species or system rat; settings: 10 μM
Source text: as §2

[11] = tested on: Glutamate, AMPA; test: binding assay, Glutamate, AMPA; design: species or system rat; settings: 10 μM
Source text: as §2

[12] = target: Potassium Channel hERG (Homo sapiens, UniProt Q12809); test: binding assay, Potassium Channel hERG
Source text: as §2

[13] = tested on: Glycine, Strychnine-Sensitive; test: binding assay, Glycine, Strychnine-Sensitive; design: species or system rat; settings: 10 μM
Source text: as §2

[14] = alternating T-maze learning task; format: in vivo, rat; settings: 60 min before testing
Description: Male 3 month old Fisher 344 X Brown Norway F1 cross rats (FBNF1) were used for this study. The t-maze was constructed with arms (45 cm long×10 cm wide×10 cm high) made of black Plexiglas enclosing the maze. Two plastic bottle caps, lined with wire mesh, were secured to the end of each goal arm in which the food reward (Cheerios, 100 mg/piece) was placed. Before the start of training, animals were gradually deprived of food to approximately 85% of their free feeding weight. On three successive days before the start of training, animals were habituated to the t-maze with food located throughout the maze. […] On the subsequent testing day, animals were given injections of AK51(0.3, 1, 3, 10, 30 mg/kg p.o.), or DMSO vehicle (1 mg/ml; Sigma, Saint Louis Mo.) in a blind manner via gastric gavage (4″, 16-ga; Braintree Scientific, Braintree Mass.) 60 min prior to the start of testing (n=8-9 per group. On the first trial of testing, both arms were baited with food and for the subsequent 20 trials only alternating choices (opposite of the animal's previous choice) were rewarded (˜30 sec inter-trial interval). The number of trials to criterion (5 consecutive correct choices) was calculated for each animal. Data was analyzed by ANOVA followed by Fisher PLSD post hoc tests comparing individual drug doses to vehicle (α=0.05). […]

[15] = tested on: Glutamate, NMDA, Polyamine; test: binding assay, Glutamate, NMDA, Polyamine; design: species or system rat; settings: 10 μM
Source text: as §2

Chain of Potassium Channel hERG (Q12809 whole entry): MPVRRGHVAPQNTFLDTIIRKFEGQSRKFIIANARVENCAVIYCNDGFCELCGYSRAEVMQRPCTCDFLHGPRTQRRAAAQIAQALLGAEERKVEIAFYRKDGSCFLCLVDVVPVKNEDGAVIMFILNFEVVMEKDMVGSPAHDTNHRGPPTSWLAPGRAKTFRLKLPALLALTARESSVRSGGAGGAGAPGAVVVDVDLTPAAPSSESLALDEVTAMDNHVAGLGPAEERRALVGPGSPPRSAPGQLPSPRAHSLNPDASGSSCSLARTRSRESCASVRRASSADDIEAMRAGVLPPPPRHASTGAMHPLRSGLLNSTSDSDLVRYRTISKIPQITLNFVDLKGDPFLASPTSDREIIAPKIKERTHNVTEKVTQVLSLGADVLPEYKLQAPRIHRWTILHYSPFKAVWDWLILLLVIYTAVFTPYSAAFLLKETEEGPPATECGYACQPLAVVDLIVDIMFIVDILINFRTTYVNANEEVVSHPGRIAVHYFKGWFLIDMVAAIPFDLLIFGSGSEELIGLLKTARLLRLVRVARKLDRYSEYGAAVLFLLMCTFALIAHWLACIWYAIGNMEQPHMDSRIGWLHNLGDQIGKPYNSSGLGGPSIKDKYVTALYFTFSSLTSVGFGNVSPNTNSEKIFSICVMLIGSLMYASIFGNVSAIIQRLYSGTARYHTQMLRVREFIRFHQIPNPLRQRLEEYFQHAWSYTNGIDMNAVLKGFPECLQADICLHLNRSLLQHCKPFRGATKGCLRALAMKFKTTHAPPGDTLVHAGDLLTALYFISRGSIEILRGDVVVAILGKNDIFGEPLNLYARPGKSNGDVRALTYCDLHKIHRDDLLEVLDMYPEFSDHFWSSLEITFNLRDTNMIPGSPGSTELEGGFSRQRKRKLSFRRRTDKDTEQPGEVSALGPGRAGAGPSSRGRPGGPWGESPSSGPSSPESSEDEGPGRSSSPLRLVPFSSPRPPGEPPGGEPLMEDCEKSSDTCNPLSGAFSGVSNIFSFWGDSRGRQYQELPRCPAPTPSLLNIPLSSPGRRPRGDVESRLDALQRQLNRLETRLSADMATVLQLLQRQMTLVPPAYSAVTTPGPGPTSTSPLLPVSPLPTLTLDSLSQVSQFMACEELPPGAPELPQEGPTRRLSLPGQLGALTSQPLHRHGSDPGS

Structure (SMILES): C[C@@H](O)[C@H](N)C(=O)N1CCC[C@H]1C(=O)N1CCC[C@H]1C(=O)N[C@H](C(N)=O)[C@@H](C)O [GLYX-13] (H-TPPT-NH2)
- effect on LTP ([1]; 100 μM): reducing
- effect on LTP ([1]; low concentration 1-10 μM): enhancement
- effect on burst INMDA ([2]; 100 μM): reducing
- effect on burst-activated INMDA ([2]; low concentration 1-10 μM): enhancement
- effect on single pulse evoked INMDA ([2]; low concentration 1-10 μM): reducing
- effect on LTD ([3]; 100 μM): no longer affected
- effect on LTD ([3]; low concentration 1-10 μM): reducing

Structure (SMILES): CC(O)C(NC(=O)OCc1ccccc1)C(=O)N1CC2(CCCN2C(=O)OCc2ccccc2)C1=O (stereo not drawn) [AK-52]
- effect on LTD [4]: without altering; also recorded: did not affect
- effect on single shock evoked INMDA (NMDA e.p.s.c.s) ([5]; 100 nM): only a mild enhancement
- effect on single shock evoked INMDA (NMDA e.p.s.c.s) ([5]; 100 nM, listed as AK52): enhancement
- effect on single shock evoked INMDA (NMDA e.p.s.c.s) ([5]; 1 μM): significant reduction
- effect on single shock evoked INMDA (NMDA e.p.s.c.s) ([5]; 1 μM, listed as AK52): marked reduction
- relative potency / magnitude as enhancer of INMDA among the tested compounds [5]: weakest enhancer
- effect on magnitude of LTP ([6]; 100 nM): enhancement of LTP similar in magnitude to compound B and AK-51
- effect on magnitude of LTP ([6]; 1 μM): slight, but significant, reduction
- effect on induction / magnitude of LTP ([6]; concentration not given): selectively enhances

Structure (SMILES): O=C1NCC12CCCN2 (stereo not drawn) [AK51]
- % Inhibition [7]: 27%
- % Inhibition [8]: −5%
- % Inhibition [9]: −13%
- effect on LTD [4]: not altering
- % Inhibition [10]: −10%
- effect on single shock evoked INMDA (NMDA e.p.s.c.s) ([5]; 100 nM, listed as NRX-10,051): enhanced; also recorded: marked enhancement
- effect on single shock evoked INMDA (NMDA e.p.s.c.s) ([5]; 1 μM): enhancement
- effect on single shock evoked INMDA (NMDA e.p.s.c.s) ([5]; 1 μM, listed as NRX-10,051): enhanced
- effect on NMDA current (NMDA receptor-gated current, whole-cell recording) ([5]; FIG. 4, 100 nM and 1 μM, 20 min bath application): enhances
- relative potency / magnitude as enhancer of INMDA among the tested compounds [5]: less potency than compound B; also recorded: smaller in magnitude
- % Inhibition [11]: −8%
- inhibition at 10 µM [12]: 3%
- % Inhibition [13]: 4%
- learning behavior in the T-maze test ([14]; 1.0 mg/kg by mouth, P<0.001): statistically significant enhancement
- learning behavior in the T-maze test ([14]; 3.0 mg/kg by mouth, P<0.01): statistically significant enhancement
- effect on magnitude of LTP ([6]; 100 nM): potentiate
- effect on magnitude of LTP ([6]; 1 μM): potentiate
- effect on magnitude of LTP ([6]; 1 μM, listed as NRX-10,051): doubled
- effect on LTP ([6]; FIG. 4, 100 nM and 1 μM bath application): enhances
- % Inhibition [15]: −14%
